Read-outs that look alike come from different tables or passages of the source.
Legend:
[1] = Acute toxicity in mice (LD50, Bliss' method); settings: mouse, in vivo
Description: Acute toxicity was studied in mice, the compounds being administered intravenously, subcutaneously, intraperitoneally and orally.
The doses causing the death of 50% of the animals (LD50) were determined by Bliss' method, giving the following results: […]

[2] = system: spontaneous motor function in mice; assay: Inhibition of spontaneous motor function in mice, Winter and Flataker test (photoelectric method); assay type: in vivo; settings: Mus musculus
Text: (§1) Thus, an inhibitory effect on spontaneous motor function in mice, a catalepsy-inducing power in rats, and antagonism towards certain apomorphine- and amphetamine-induced behavioural effects were investigated, in particular.
(§2) Regarding the spontaneous motor function in mice, an inhibitory effect of the inventive compounds was effectively observed and recorded by a photoelectric method, according to a technique similar to that of Winter and Flataker (J. Pharmacol. Exp. Ther. 1951, 101, 156-162) and by measurement of activity using an Animex apparatus.
(§3) The compounds were administered intraperitoneally or orally, respectively, 15 or 60 minutes before the recording according to the method adopted.
(§4) The values of the 50% inhibitory doses of motor function ID50 of the compounds are collected in the following table: […]

[3] = system: spontaneous motor function in mice; assay: Inhibition of spontaneous motor function in mice, Animex activity measurement test; assay type: in vivo; settings: Mus musculus
Text: as §1, §2, §3, §4

[4] = system: catalepsy in rats; assay: Catalepsy in rats; assay type: in vivo; settings: Rattus norvegicus, sc, subcutaneously, at the peak of effect
Description: The catalepsy-inducing function of the compounds of the invention was studied in rats. Each of the compounds was administered subcutaneously, at increasing doses, to groups of 10 rats (1 group for each dose). […] The dose giving rise to catalepsy in 50% of the animals (ED50) was determined graphically, at the peak of effect.

[5] = system: Apomorphine stereotypy; assay: Antagonism of apomorphine stereotypy in rats (1.25 mg/kg IV, Janssen); assay type: in vivo; settings: Rattus norvegicus, sc, compound s.c. 60 minutes before apomorphine 1.25 mg/kg IV, read-out: ID50 S.C., Apomorphine stereotypy (1.25 mg/kg IV)
Text: (§5) Apomorphine and amphetamine induce stereotyped movements in rats which are antagonized by neuroleptics. […]
(§6) These different experimental conditions made it possible to establish the doses which antagonize stereotypy by 50% (ID50), judged on the basis of the various components of the movements which were observed.

[6] = system: Apomorphine stereotypy; assay: Antagonism of apomorphine stereotypy in rats (0.5 mg/kg SC, derived from Puech); assay type: in vivo; settings: Rattus norvegicus, ip, compound i.p. 30 minutes before apomorphine 0.5 mg/kg SC, read-out: ID50 I.P., Apomorphine stereotypy (0.5 mg/kg SC)
Text: as §5, §6

[7] = system: dexamphetamine stereotypy; assay: Antagonism of dexamphetamine stereotypy in rats (Janssen amphetamine test); assay type: in vivo; settings: Rattus norvegicus, sc, 1 h, compound s.c. simultaneously with dexamphetamine 10 mg/kg i.v., effect at 60 minutes, read-out: ID50 S.C., Janssen amphetamine test
Description: Apomorphine and amphetamine induce stereotyped movements in rats which are antagonized by neuroleptics. Different doses of apomorphine administered by different routes were applied to produce these movements. In the test using dexamphetamine, carried out according to the technique of Janssen (Arz. Forsch. 1961, 11, 932-938), 10 mg/kg of dexamphetamine were injected intravenously, the test product being injected simultaneously subcutaneously, and the effect being measured 60 minutes after these injections. These different experimental conditions made it possible to establish the doses which antagonize stereotypy by 50% (ID50), judged on the basis of the various components of the movements which were observed.

[8] = system: apomorphine-induced climbing behavior; assay: Antagonism of apomorphine-induced climbing behavior in mice; assay type: in vivo; settings: Mus musculus, ip, compound i.p. 30 minutes before apomorphine 1 mg/kg s.c., read-out: ID50 I.P., apomorphine-induced climbing behavior
Description: Another test using apomorphine was applied, based on the observation of the climbing behavior which it induces in mice, this behavior being antagonized by neuroleptics, according to Puech (Eur. J. Pharmacol. 1978, 50, 291-300).
The compound was administered intraperitoneally 30 minutes before the apomorphine (1 mg/kg subcutaneously), and the antagonism was assessed 45 to 50 minutes after the administration of the compound.

[9] = ip, read-out: Lethal doses50 i.p.
[10] = iv, read-out: Lethal doses50 i.v.
[11] = sc, read-out: Lethal doses50 s.c.
[12] = ip, read-out: ID50 i.p., Winter and Flataker test
[13] = po, read-out: ID50 p.o., Winter and Flataker test
[14] = ip, read-out: ID50 i.p., Animex activity measurement test
[15] = po, read-out: ID50 p.o., Animex activity measurement test
[16] = po, orally, read-out: Lethal doses50 orally

SMILES	LD50 [1, 9] [mg/kg]	LD50 [1, 10] [mg/kg]	LD50 [1, 11] [mg/kg]	ED50 [2, 12] [mg/kg]	ED50 [2, 13] [mg/kg]	ED50 [3, 14] [mg/kg]	ED50 [3, 15] [mg/kg]	ED50 [4] [mg/kg]	ED50 [5] [mg/kg]	ED50 [6] [mg/kg]	ED50 [7] [mg/kg]	ED50 [8] [mg/kg]	LD50 [1, 16] [mg/kg]
CC1Cc2cc(Cl)cc(C(=O)NCC3CCCN3CC3=CCCCC3)c2O1 (stereo not shown) [Ex 15, Neutral ethanedisulphonate of N-(1-cyclohexenylmethyl-2-pyrrolidinylmethyl)-5-chloro-2-methyl-2,3-dihydrobenzofuran-7-carboxamide]	232 to 234	31.1 to 34.7	1410	3.5	43.4	2.2	23.2	1.35	0.41	0.58 to 0.59	0.18	0.28 to 0.34	
CNS(=O)(=O)c1cc2c(c(C(=O)NCC3CCCN3CC3=CCCCC3)c1)OCCC2 (stereo not shown) [Ex 2, N-(1-Cyclohexenylmethyl-2-pyrrolidinylmethyl)-6-methylsulphamoylchroman-8-carboxamide]	167 to 172	42.6 to 43.7	406 to 408	6.2	31.5	7.5	31.5	17.6	0.73	2.5 to 2.7	0.77	1.2 to 1.24	342 to 354
O=C(NCC1CCCN1CC1=CCCCC1)c1cc(Cl)cc2c1OCC2 (stereo not shown) [Ex 14, N-(1-Cyclohexenylmethyl-2-pyrrolidinylmethyl)-5-chloro-2,3-dihydrobenzofuran-7-carboxamide]	69.6 to 83.3	24.8	412 to 434	2.1	27	1.7	25	2.7	0.29	0.31 to 0.41	0.12	0.27 to 0.29	350 to 354
CCS(=O)(=O)c1cc2c(c(C(=O)NCC3CCCN3CC3=CCCCC3)c1)OCCC2 (stereo not shown) [Ex 11, N-(1-Cyclohexenylmethyl-2-pyrrolidinylmethyl)-6-ethylsulphonylchroman-8-carboxamide]	125 to 127	28 to 28.6	141 to 145	1.3	16.6	1.22	16.6	1.66	0.134	0.18 to 0.23	0.066	0.105 to 0.126	149 to 163
CCS(=O)(=O)c1cc2c(c(C(=O)NCC3CCCN3CC3CC3)c1)OC(C)C2.Cl (stereo not shown) [Ex 9, N-(1-Cyclopropylmethyl-2-pyrrolidinylmethyl)-5-ethylsulphonyl-2-methyl-2,3-dihydrobenzofuran-7-carboxamide hydrochloride]	211 to 213	68.8 to 70.2	440 to 462	3.2	31.5	3	23.4	20.7	3.6	1.2 to 1.6	1.1	0.4 to 0.55	390 to 391
